Results reported in ChEMBL document CHEMBL1146276, “Development of a novel therapeutic suppressor of brain proinflammatory cytokine up-regulation that attenuates synaptic dysfunction and behavioral deficits” (Bioorg Med Chem Lett, 2007).
In brackets after ≈: the same amount, converted by molar mass. Values belong to the compound of their own block, whether it stands above or below them. Activity calls are given as the source filed them. The rule behind the calls is not given here.

Key:
[1] = organism: Mus musculus; assay: Prevention of loss of synaptic protein PSD95 in human amyloid-beta induced mouse injury model; format: functional, organism-based
[2] = tested on: Mus musculus; assay: Suppression of TNFalpha production in human amyloid-beta induced mouse injury model at […], po for 2 weeks after 60 days of injury; format: functional, organism-based; design: dose 2.5 mg/kg
[3] = tested on: Mus musculus; assay: Suppression of IL1-beta production in human amyloid-beta induced mouse injury model at […], po for 2 weeks after 60 days of injury; format: functional, organism-based; design: dose 2.5 mg/kg
[4] = tested on: Mus musculus; assay: Reduction of F4/80 positive microglia in human amyloid-beta induced mouse injury model at […], po for 2 weeks after 60 days of injury; format: functional, organism-based; design: dose 2.5 mg/kg
[5] = organism: Mus musculus; assay: Prevention of loss of synaptic protein synaptophytsin in human amyloid-beta induced mouse injury model; format: functional, organism-based
[6] = tested on: Mus musculus; assay: Suppression of S100B production in human amyloid-beta induced mouse injury model at […], po for 2 weeks after 60 days of injury; format: functional, organism-based; design: dose 2.5 mg/kg
[7] = organism: Mus musculus; assay: Attenuation of hippocampal dependent behavioral deficits in mouse by Y maze test; format: functional, organism-based; conditions: Hippocampus
[8] = tested on: Mus musculus; assay: Reduction of GFAP-positive astrocytes in human amyloid-beta induced mouse injury model at […], po for 2 weeks after 60 days of injury; format: functional, organism-based; design: dose 2.5 mg/kg
[9] = Aqueous solubility of the compound; format: physicochemical; conditions: buffer
[10] = Inhibition of IL1 beta production in glia cells; format: functional, cell-based; conditions: Homo sapiens
[11] = Chemical stability in water; format: physicochemical; conditions: buffer
[12] = Partition coefficient, log P of the compound; format: physicochemical; conditions: octanol/water
[13] = Chemical stability in dilute base after 5 days; format: physicochemical; conditions: read-out: Stability
[14] = Chemical stability in hydrogen peroxide upto 48 hrs; format: physicochemical; conditions: read-out: Stability
[15] = Brain penetration, LogBB of the compound; format: ADME; conditions: read-out: logBB (converted)
[16] = tested on: Cavia porcellus; assay: Cardiotoxicity in guinea pig assessed as prolongation of QTc interval at 15 mg/kg, po; format: toxicity, organism-based; design: dose 15 mg/kg, route oral; conditions: in vivo
[17] = organism: Homo sapiens; assay: Suppression of proinflammatory cytokine production in glia cells; format: functional, cell-based

IC50 [10]: 46.1 µM
Compound: Cc1cc(-c2ccccc2)nnc1N1CCN(c2cnccn2)CC1

IC50 [10]: 9.5 µM
Compound: Clc1cc(-c2ccccc2)nnc1N1CCN(c2ncccn2)CC1

Stability [11]: < 5%
logP [12]: 2.3
remaining at 120 h [13]: 53%
remaining at 48 h [14]: < 10%
Compound: Cc1cc(-c2ccccc2)nnc1N1CCN(c2ncccn2)CC1.Cl.O

IC50 [10]: 8.3 µM
Kp [15]: 2.82
Solubility [9]: 16 ng/mL (≈ 0.0481 µM)
Compound: Cc1cc(-c2ccccc2)nnc1N1CCN(c2ncccn2)CC1 [MINOZAC FREE BASE]
Activity [16]: Non-toxic

More lines, now with the values behind:

Compound: Cc1cc(-c2ccccc2)nnc1N1CCN(c2ncccn2)CC1
Activity [1]: Active
Activity [2]: Active
Activity [3]: Active
Activity [4]: Active
Activity [5]: Active
Activity [6]: Active
Activity [7]: Active
Activity [8]: Active

Compound: c1ccc(-c2cc(-c3ccccc3)c(N3CCN(c4ncccn4)CC3)nn2)cc1 [listing 1 of 2 here]
Solubility [9]: < 2 ng/mL

Compound: Cc1cc(-c2ccccc2)nnc1N1CCN(C2CCCCC2)CC1
IC50 [10]: 31.4 µM

Compound: Cc1cc(-c2ccccc2)nnc1N1CCN(C)CC1
IC50 [10]: 48.9 µM

Compound: Cc1cc(-c2ccccc2)nnc1N1CCN(c2ccccc2)CC1
IC50 [10]: 15.5 µM

Compound: c1ccc(-c2cc(-c3ccccc3)c(N3CCN(c4ncccn4)CC3)nn2)cc1 [listing 2 of 2 here]
logP [12]: 2.7

Compound: Cc1cc(-c2ccccc2)nnc1NCCN1CCOCC1
Activity [17]: inactive
